The subject of assay [1] is B-16 cells (malignant melanoma). Briefly: Malignant melanoma in mice: survival. It counts as in vivo. As to the method:
In vivo studies were carried out to assess the effect of the above combination therapy, both in the solution form and in the microencapsulated form in the treatment of cancer, in order to examine any possible advantages of the microencapsulated form of the drugs. The cytokine levels (eg. TNFa and IL1β were also evaluated after treatment.
Male C57BL/6 mice weighing approximately 18-20 g were anesthetized with light ether vapor and were injected subcutaneously with B-16 cells (1×10^6 cells). Their weights, tumor size and survival rate (in days) were measured daily. The tumor size was followed by measuring the long axis of the tumor daily. The study began once the tumor size reached 0.5 cm in diameter. The animals were divided into control and treatment groups. The control groups received phosphate buffered saline, blank PLGA microspheres or blank albumin microspheres. The treated groups received the following dosing schedule: Methotrexate solution (2 mg/kg or 15 mg/kg) administered s.c. daily or every three days. The M-CSF solution (10 microgram/kg or 100 microgram/kg) administered i.p. daily. The MTX microspheres (2 mg/kg or 15 mg/kg) and/or the M-CSF microspheres (10 microgram/kg or 100 microgram/kg) administered s.c. and i.p. respectively, alone or in combination therapy.

The test system of assay [2] is OKT3 induced TNFa release. Briefly: Inhibition of OKT3 induced cytokine release in blood: TNFa. It counts as cell-based. The note with it: human blood, OKT3 1 μg/mL, 37° C., 24 hr; Grp 2 OKT3+Blank MC, Grp 3 TNFa NA 1 μg/mL+IL1β NA 2 μg/mL+OKT3. The text has this: (§1) OKT3 is a murine monoclonal antibody to the CD3 antigen of human T cells and is used to treat transplant rejection. The high incidence of adverse reactions associated with OKT3 is thought to be related to the induction of cytokines. The purpose of this study was to determine if microencapsulated (MC) neutralizing antibodies (NA) to human TNFa and IL1β which are readily phagocytized by macrophages can inhibit the release of TNFa, IL1β, and IL6 following OKT3 challenge in vitro.
(§2) Microcapsules were prepared using the method from Example 1 using an albumin matrix. Blood was collected from 10 healthy subjects and separated into aliquots for the following groups. • Grp 1) Blank MC • Grp 2) OKT3 1 μg/mL+Blank MC • Grp 3) TNFa NA 1 μg/mL+IL1β NA 2 μg/mL+OKT3 1 μg/mL. Aliquots were incubated at 37° C. for 24 hr. Blood was assayed for TNFa, […], and IL6 at 0, 2, 6, 24 hr by ELISA. C) Results

The next assay concerns OKT3 induced IL6 release. Briefly: Inhibition of OKT3 induced cytokine release in blood: IL6. Format: cell-based. The note with it: human blood, OKT3 1 μg/mL, 37° C., 24 hr.
Description: as §1, §2

Regarding `CN(Cc1cnc2nc(N)nc(N)c2n1)c1ccc(C(=O)N[C@@H](CCC(=O)O)C(=O)O)cc1` [MTX solution, methotrexate], the mean survival in assay [1] (2 mg/kg s.c. every 3 days) was found to be 12.8 days. Besides, the mean survival time in assay [1] (15 mg/kg s.c. every 3 days) was 14.2 days.
As to “OKT3: murine monoclonal antibody to the CD3 antigen of human T cells”, in assay [2], the “Peak TNFa” value stood at 655 ± 71 pg/mL. For the same molecule, the “Peak IL6” value in the assay on OKT3 induced IL6 release was 664 ± 60 pg/mL.

B1: M-CSF solution: Macrophage colony stimulating factor in solution (protein, UniProt P09603 33-554, looked up)
Macrophage colony-stimulating …: EEVSEYCSHMIGSGHLQSLQRLIDSQMETSCQITFEFVDQEQLKDPVCYLKKAFLLVQDIMEDTMRFRDNTPNAIAIVQLQELSLRLKSCFTKDYEEHDKACVRTFYETPLQLLEKVKNVFNETKNLLDKDWNIFSKNCNNSFAECSSQDVVTKPDCNCLYPKAIPSSDPASVSPHQPLAPSMAPVAGLTWEDSEGTEGSSLLPGEQPLHTVDPGSAKQRPPRSTCQSFEPPETPVVKDSTIGGSPQPRPSVGAFNPGMEDILDSAMGTNWVPEEASGEASEIPVPQGTELSPSRPGGGSMQTEPARPSNFLSASSPLPASAKGQQPADVTGTALPRVGPVRPTGQDWNHTPQKTDHPSALLRDPPEPGSPRISSLRPQGLSNPSTLSAQPQLSRSHSSGSVLPLGELEGRRSTRDRRSPAEPEGGPASEGAARPLPRFNSVPLTDTGHERQSEGSFSPQLQESVFHLLVPSVILVLLAVGGLLFYRWRRRSHQEPQRADSPLEQPEGSPLTQDDRQVELPV
As to B1, the mean survival time in assay [1] (10 microgram/kg i.p. daily) is reported as 14,2 days.

The values above are taken from US7105158B1, “Methods of administering microencapsulated materials for immune modulated diseases” (priority 1992, dated 2006).
